Measured values taken from US20240132521A1, “COMPOUNDS AND METHODS FOR MODULATING HER2” (Iambic Therapeutics, Inc., priority 2022, published 2024).
Where two headings read alike, the source gives them in different places.

Experiments:
Type in all cases: cell-based
BaF3_HER2WT cells = BaF3_HER2WT cells (Homo sapiens, UniProt P04626); experiment: Cell growth inhibition assay (CellTiterGlo), BaF3_HER2WT
BaF3_HER2YVMA cells = BaF3_HER2YVMA cells (Homo sapiens, UniProt P04626, DUP772-775, cells depend on it); experiment: Cell growth inhibition assay (CellTiterGlo), BaF3_HER2YVMA
BaF3_EGFRWT cells = BaF3_EGFRWT cells (Homo sapiens, UniProt P00533); experiment: Cell growth inhibition assay (CellTiterGlo), BaF3_EGFRWT
[1] = cell growth inhibition, 3 days treatment, read-out: HER2 WT IC50
[2] = cell growth inhibition, 3 days treatment, read-out: HER2 - YVMA IC50
[3] = cell growth inhibition, 80 ng/mL EGF, 3 days treatment, read-out: EGFR WT IC50
[4] = 3-day treatment, CellTiterGlo, read-out: Cell growth inhibition activity, HER2 WT
[5] = 3-day treatment, CellTiterGlo, read-out: Cell growth inhibition activity, HER2 - YVMA
[6] = 3-day treatment, CellTiterGlo, read-out: Cell growth inhibition activity, EGFR WT

BaF3_HER2YVMA cells, sequence (P04626 with tags, fused parts or gaps DUP772-775): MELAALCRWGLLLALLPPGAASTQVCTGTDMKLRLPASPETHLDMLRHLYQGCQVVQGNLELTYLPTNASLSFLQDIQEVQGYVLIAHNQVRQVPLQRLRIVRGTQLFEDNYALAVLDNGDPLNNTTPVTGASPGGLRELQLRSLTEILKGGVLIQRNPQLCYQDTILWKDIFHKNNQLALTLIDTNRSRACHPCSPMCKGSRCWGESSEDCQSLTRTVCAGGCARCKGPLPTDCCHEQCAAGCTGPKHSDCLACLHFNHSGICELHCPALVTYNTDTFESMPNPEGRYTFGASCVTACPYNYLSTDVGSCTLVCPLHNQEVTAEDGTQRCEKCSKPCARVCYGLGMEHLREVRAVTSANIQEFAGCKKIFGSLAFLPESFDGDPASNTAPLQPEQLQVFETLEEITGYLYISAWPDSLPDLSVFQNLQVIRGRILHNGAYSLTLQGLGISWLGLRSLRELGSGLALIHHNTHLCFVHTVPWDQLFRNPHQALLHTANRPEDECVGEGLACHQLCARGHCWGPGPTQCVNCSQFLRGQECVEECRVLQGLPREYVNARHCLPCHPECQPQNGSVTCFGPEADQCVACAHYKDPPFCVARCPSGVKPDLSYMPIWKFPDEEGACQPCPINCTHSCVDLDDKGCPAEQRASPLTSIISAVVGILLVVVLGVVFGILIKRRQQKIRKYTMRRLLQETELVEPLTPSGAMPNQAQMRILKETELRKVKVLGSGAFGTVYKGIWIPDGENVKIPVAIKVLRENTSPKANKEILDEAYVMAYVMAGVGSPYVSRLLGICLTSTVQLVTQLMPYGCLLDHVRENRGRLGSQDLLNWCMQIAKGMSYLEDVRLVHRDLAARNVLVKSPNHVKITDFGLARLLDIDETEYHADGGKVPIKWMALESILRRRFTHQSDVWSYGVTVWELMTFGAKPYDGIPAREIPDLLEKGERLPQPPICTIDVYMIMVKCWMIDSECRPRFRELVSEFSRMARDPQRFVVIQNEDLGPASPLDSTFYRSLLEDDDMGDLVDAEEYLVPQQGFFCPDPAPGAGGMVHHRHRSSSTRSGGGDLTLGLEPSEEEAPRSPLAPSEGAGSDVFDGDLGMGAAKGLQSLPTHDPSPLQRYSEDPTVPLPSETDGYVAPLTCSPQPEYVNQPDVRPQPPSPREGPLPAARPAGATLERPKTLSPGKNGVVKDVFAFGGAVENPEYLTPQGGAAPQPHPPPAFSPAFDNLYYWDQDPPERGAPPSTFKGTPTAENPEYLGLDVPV
BaF3_EGFRWT cells, sequence (P00533 whole entry, change not shown): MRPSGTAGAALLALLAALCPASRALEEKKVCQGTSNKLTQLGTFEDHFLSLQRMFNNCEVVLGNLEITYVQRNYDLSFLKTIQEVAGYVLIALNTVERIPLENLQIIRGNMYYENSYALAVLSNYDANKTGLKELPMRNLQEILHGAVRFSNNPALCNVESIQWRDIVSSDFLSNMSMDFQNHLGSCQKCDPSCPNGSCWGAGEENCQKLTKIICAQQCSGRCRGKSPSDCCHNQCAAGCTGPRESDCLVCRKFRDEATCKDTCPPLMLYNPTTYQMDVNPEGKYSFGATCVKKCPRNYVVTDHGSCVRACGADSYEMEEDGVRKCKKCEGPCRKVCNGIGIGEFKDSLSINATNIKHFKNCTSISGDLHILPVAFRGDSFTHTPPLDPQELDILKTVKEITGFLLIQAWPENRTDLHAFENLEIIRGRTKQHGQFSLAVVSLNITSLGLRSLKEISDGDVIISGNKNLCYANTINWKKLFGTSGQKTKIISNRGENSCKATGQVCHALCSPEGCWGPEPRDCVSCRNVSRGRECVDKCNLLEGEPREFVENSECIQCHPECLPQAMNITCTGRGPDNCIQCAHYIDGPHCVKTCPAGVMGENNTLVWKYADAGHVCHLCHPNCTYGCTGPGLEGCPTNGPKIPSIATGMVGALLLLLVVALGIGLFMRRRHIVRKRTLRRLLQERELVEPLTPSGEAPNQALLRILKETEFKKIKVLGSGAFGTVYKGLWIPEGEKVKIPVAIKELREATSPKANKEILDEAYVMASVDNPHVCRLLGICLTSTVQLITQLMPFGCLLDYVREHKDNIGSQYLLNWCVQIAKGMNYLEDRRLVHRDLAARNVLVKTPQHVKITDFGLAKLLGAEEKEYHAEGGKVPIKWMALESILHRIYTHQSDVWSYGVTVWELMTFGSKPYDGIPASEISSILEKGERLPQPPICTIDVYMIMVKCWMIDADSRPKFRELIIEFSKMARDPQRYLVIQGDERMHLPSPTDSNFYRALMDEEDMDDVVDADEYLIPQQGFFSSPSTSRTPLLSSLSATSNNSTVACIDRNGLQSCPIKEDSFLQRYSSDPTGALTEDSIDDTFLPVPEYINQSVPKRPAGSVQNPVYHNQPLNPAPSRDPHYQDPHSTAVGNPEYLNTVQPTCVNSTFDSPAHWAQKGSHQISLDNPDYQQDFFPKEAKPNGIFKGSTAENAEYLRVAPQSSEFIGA
BaF3_HER2WT cells, sequence (P04626 whole entry, change not shown): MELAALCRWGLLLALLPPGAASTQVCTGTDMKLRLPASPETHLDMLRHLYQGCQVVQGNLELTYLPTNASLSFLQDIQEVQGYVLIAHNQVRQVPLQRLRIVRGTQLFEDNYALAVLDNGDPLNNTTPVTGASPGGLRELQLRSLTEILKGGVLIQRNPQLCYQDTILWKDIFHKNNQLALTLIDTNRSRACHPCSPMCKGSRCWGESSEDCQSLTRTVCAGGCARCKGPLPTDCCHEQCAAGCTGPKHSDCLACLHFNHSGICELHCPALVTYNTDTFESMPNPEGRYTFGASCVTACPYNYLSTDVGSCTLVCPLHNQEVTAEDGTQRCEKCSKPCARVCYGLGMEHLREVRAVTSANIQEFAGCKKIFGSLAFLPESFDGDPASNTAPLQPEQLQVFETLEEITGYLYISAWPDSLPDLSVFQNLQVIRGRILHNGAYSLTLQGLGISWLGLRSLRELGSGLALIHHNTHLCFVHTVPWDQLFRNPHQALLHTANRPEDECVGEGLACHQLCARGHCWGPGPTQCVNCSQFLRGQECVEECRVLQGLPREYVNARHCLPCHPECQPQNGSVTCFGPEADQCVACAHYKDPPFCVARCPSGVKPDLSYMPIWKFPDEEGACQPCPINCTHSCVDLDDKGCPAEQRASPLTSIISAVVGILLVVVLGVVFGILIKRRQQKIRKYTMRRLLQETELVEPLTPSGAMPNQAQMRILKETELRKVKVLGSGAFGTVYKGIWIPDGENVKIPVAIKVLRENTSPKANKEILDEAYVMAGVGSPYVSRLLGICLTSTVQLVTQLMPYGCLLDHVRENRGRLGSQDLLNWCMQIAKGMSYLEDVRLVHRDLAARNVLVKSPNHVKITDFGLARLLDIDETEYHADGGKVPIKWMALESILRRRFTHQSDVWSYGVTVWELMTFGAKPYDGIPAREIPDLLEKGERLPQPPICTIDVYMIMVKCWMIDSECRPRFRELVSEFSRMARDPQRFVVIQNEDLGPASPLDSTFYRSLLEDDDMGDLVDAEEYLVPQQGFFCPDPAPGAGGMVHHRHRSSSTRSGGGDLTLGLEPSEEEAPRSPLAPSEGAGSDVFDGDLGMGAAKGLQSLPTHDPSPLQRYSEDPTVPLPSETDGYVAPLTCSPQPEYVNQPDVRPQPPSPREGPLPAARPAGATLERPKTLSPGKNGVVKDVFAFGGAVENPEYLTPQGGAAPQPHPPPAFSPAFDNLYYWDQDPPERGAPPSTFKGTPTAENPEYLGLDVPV

Row | SMILES | GI50 (BaF3_HER2WT cells; [1]) [nM] | GI50 (BaF3_HER2YVMA cells; [2]) [nM] | GI50 (BaF3_EGFRWT cells; [3]) [nM] | GI50 (BaF3_HER2WT cells; [4]) [nM] | GI50 (BaF3_HER2YVMA cells; [5]) [nM] | GI50 (BaF3_EGFRWT cells; [6]) [nM]
1 | Cc1cc(Nc2ncnn3ccc(C4CCCN(C(=O)C(F)Cl)CC4)c23)ccc1Oc1ccn2ncnc2c1 (single isomer, unassigned) [Examples 145, 146, 147 and 148, second eluting isomer, 1-(4-(4-((4-([1,2,4]triazolo[1,5-a]pyridin-7-yloxy)-3-methylphenyl)amino)pyrrolo[2,1-f][1,2,4]triazin-5-yl)azepan-1-yl)-2-chloro-2-fluoroethan-1-one] | < 200 | < 200 | 500 to 1500 | – | – | –
2 | Cc1cc(Nc2ncnn3ccc(C4CCCN(C(=O)C(F)Cl)CC4)c23)ccc1Oc1ccn2ncnc2c1 (single isomer, unassigned) [Examples 145, 146, 147 and 148, third eluting isomer, 1-(4-(4-((4-([1,2,4]triazolo[1,5-a]pyridin-7-yloxy)-3-methylphenyl)amino)pyrrolo[2,1-f][1,2,4]triazin-5-yl)azepan-1-yl)-2-chloro-2-fluoroethan-1-one] | 200 to 500 | 500 to 1500 | 1500 to 5000 | – | – | –
3 | Cc1cc(Nc2ncnn3ccc(C4CCN(C(=O)[C@H](F)Cl)CC4)c23)ccc1Oc1ccn2ncnc2c1 (single isomer, unassigned) [Examples 173 and 174, first eluting isomer] | 200 to 500 | 1500 to 5000 | 1500 to 5000 | – | – | –
4 | Cc1cc(Nc2ncnn3ccc(C4CCN(C(=O)[C@@H](F)Cl)CC4)c23)ccc1Oc1ccn2ncnc2c1 (single isomer, unassigned; second eluting) [Examples 173 and 174, second eluting isomer, (5)-1-(4-(4-((4-([1,2,4]triazolo[1,5-a]pyridin-7-yloxy)-3-methylphenyl)amino)pyrrolo[2,1-f][1,2,4]triazin-5-yl)piperidin-1-yl)-2-chloro-2-fluoroethan-1-one] | < 200 | < 200 | 1500 to 5000 | – | – | –
5 | C=CC(=O)N1CC2(C1)CN(c1ccn3ncnc(Nc4cnc(Oc5ccn6ncnc6c5)c(Cl)c4)c13)C2 [Example 15, 1-(6-(4-((6-([1,2,4]triazolo[1,5-a]pyridin-7-yloxy)-5-chloropyridin-3-yl)amino)pyrrolo[2,1-f][1,2,4]triazin-5-yl)-2,6-diazaspiro[3.3]heptan-2-yl)prop-2-en-1-one] | – | – | – | 1500 to 5000 | > 5000 | 1500 to 5000
6 | C=C(C(=O)O)C(=O)N1CCC(c2ccn3ncnc(Nc4ccc(Oc5ccn6ncnc6c5)c(C)c4)c23)CC1 [Example 20, 2-(4-(4-((4-([1,2,4]triazolo[1,5-a]pyridin-7-yloxy)-3-methylphenyl)amino)pyrrolo[2,1-f][1,2,4]triazin-5-yl)piperidine-1-carbonyl)acrylic acid] | – | – | – | 1500 to 5000 | 1500 to 5000 | 1500 to 5000
7 | C=C(C#N)C(=O)N1CCC(c2ccn3ncnc(Nc4ccc(Oc5ccn6ncnc6c5)c(C)c4)c23)CC1 [Example 27, 2-(4-(4-((4-([1,2,4]triazolo[1,5-a]pyridin-7-yloxy)-3-methylphenyl)amino)pyrrolo[2,1-f][1,2,4]triazin-5-yl)piperidine-1-carbonyl)acrylonitrile] | – | – | – | 500 to 1500 | 1500 to 5000 | 1500 to 5000
8 | C=C(CN(C)C)C(=O)N1C2C=C(c3ccn4ncnc(Nc5ccc(Oc6ccn7ncnc7c6)c(C)c5)c34)CC1CC2 (stereo not drawn) [Example 30, 1-(3-(4-((4-([1,2,4]triazolo[1,5-a]pyridin-7-yloxy)-3-methylphenyl)amino)pyrrolo[2,1-f][1,2,4]triazin-5-yl)-8-azabicyclo[3.2.1]oct-2-en-8-yl)-2-((dimethylamino)methyl)prop-2-en-1-one acetate] | – | – | – | < 200 | < 200 | 1500 to 5000
9 | Cc1cc(Nc2ccn3ncnc(C4CC5CCC(C4)N5C(=O)/C=C/CN(C)C)c23)ccc1Oc1ccn2cnnc2c1 (stereo not drawn) [Example 33, (E)-1-(3-(5-((4-([1,2,4]triazolo[4,3-a]pyridin-7-yloxy)-3-methylphenyl)amino)pyrrolo[2,1-f][1,2,4]triazin-4-yl)-8-azabicyclo[3.2.1]octan-8-yl)-4-(dimethylamino)but-2-en-1-one acetate] | – | – | – | < 200 | 200 to 500 | 1500 to 5000
10 | Cc1cc(Nc2ncnn3ccc(C4CCN(C(=O)C(F)Cl)CC4)c23)ccc1Oc1ccn2ncnc2c1 (stereo not drawn) [Example 35, 1-(4-(4-((4-([1,2,4]triazolo[1,5-a]pyridin-7-yloxy)-3-methylphenyl)amino)pyrrolo[2,1-f][1,2,4]triazin-5-yl)piperidin-1-yl)-2-chloro-2-fluoroethan-1-one acetate] | – | – | – | < 200 | < 200 | 1500 to 5000
11 | Cc1cc(Nc2ncnn3ccc(C4CCN(C(=O)C5CC(=O)N5)CC4)c23)ccc1Oc1ccn2ncnc2c1 (stereo not drawn) [Example 36, 4-(4-(4-((4-([1,2,4]triazolo[1,5-a]pyridin-7-yloxy)-3-methylphenyl)amino)pyrrolo[2,1-f][1,2,4]triazin-5-yl)piperidine-1-carbonyl)azetidin-2-one acetate] | – | – | – | 1500 to 5000 | 1500 to 5000 | 1500 to 5000

The next lines start with the values.

Row | GI50 (BaF3_HER2WT cells; [1]) [nM] | GI50 (BaF3_HER2YVMA cells; [2]) [nM] | GI50 (BaF3_EGFRWT cells; [3]) [nM] | GI50 (BaF3_HER2WT cells; [4]) [nM] | GI50 (BaF3_HER2YVMA cells; [5]) [nM] | GI50 (BaF3_EGFRWT cells; [6]) [nM] | SMILES
12 | < 200 | < 200 | 1500 to 5000 | – | – | – | Cc1cc(Nc2ncnn3ccc(C4CN(C(=O)/C=C/C5CCCN5C)C4)c23)ccc1Oc1ccn2ncnc2c1 (single isomer, unassigned) [Examples 171 and 172, second eluting isomer, (E)-1-(3-(4-((4-([1,2,4]triazolo[1,5-a]pyridin-7-yloxy)-3-methylphenyl)amino)pyrrolo[2,1-f][1,2,4]triazin-5-yl)azetidin-1-yl)-3-(1-methylpyrrolidin-2-yl)prop-2-en-1-one]
13 | < 200 | 200 to 500 | 1500 to 5000 | – | – | – | Cc1cc(Nc2ncnn3ccc(C4CC5CCC4CN5C(=O)/C=C/CN(C)C)c23)ccc1Oc1ccn2ncnc2c1 (single isomer, unassigned; first eluting) [Examples 137 and 138, first eluting isomer]
14 | – | – | – | < 200 | < 200 | 500 to 1500 | C=CC(=O)N1CC(c2ccn3ncnc(Nc4ccc(Oc5ccn6ncnc6c5)c(C)c4)c23)C1 [Example 3, 1-(3-(4-((4-([1,2,4]triazolo[1,5-a]pyridin-7-yloxy)-3-methylphenyl)amino)pyrrolo[2,1-f][1,2,4]triazin-5-yl)azetidin-1-yl)prop-2-en-1-one]
15 | – | – | – | < 200 | < 200 | 200 to 500 | C=CC(=O)N1CCCC(c2ccn3ncnc(Nc4ccc(Oc5ccn6ncnc6c5)c(C)c4)c23)CC1 (stereo not drawn) [Example 9, 1-(4-(4-((4-([1,2,4]triazolo[1,5-a]pyridin-7-yloxy)-3-methylphenyl)amino)pyrrolo[2,1-f][1,2,4]triazin-5-yl)azepan-1-yl)prop-2-en-1-one]
16 | – | – | – | < 200 | < 200 | 1500 to 5000 | C=CC(=O)N1CC2(CC(c3ccn4ncnc(Nc5ccc(Oc6ccn7ncnc7c6)c(C)c5)c34)C2)C1 [Example 17, 1-(6-(4-((4-([1,2,4]triazolo[1,5-a]pyridin-7-yloxy)-3-methylphenyl)amino)pyrrolo[2,1-f][1,2,4]triazin-5-yl)-2-azaspiro[3.3]heptan-2-yl)prop-2-en-1-one]
17 | – | – | – | < 200 | 500 to 1500 | 1500 to 5000 | Cc1cc(Nc2ncnn3ccc(C4CCN(C(=O)/C=C/CN5CCN(C)CC5)CC4)c23)ccc1Oc1ccn2ncnc2c1 [Example 24, (E)-1-(4-(4-((4-([1,2,4]triazolo[1,5-a]pyridin-7-yloxy)-3-methylphenyl)amino)pyrrolo[2,1-f][1,2,4]triazin-5-yl)piperidin-1-yl)-4-(4-methylpiperazin-1-yl)but-2-en-1-one]
18 | – | – | – | < 200 | < 200 | 1500 to 5000 | Cc1cc(Nc2ncnn3ccc(C4CCN(C(=O)/C=C/[C@H]5CCCN5C)CC4)c23)ccc1Oc1ccn2ncnc2c1 [Example 25, (R,E)-1-(4-(4-((4-([1,2,4]triazolo[1,5-a]pyridin-7-yloxy)-3-methylphenyl)amino)pyrrolo[2,1-f][1,2,4]triazin-5-yl)piperidin-1-yl)-3-(1-methylpyrrolidin-2-yl)prop-2-en-1-one]
19 | – | – | – | 200 to 500 | 1500 to 5000 | 1500 to 5000 | C=C(F)C(=O)N1CC=C(c2ccn3ncnc(Nc4ccc(Oc5ccn6ncnc6c5)c(C)c4)c23)CC1 [Example 26, 1-(4-(4-((4-([1,2,4]triazolo[1,5-a]pyridin-7-yloxy)-3-methylphenyl)amino)pyrrolo[2,1-f][1,2,4]triazin-5-yl)-3,6-dihydropyridin-1(2H)-yl)-2-fluoroprop-2-en-1-one]
20 | – | – | – | < 200 | 500 to 1500 | 1500 to 5000 | C=CC(=O)N1CC=C(c2ccn3ncnc(Nc4ccc(Oc5ccn6ncnc6c5)c(C)c4)c23)C1 [Example 28, 1-(3-(4-((4-([1,2,4]triazolo[1,5-a]pyridin-7-yloxy)-3-methylphenyl)amino)pyrrolo[2,1-f][1,2,4]triazin-5-yl)-2,5-dihydro-1H-pyrrol-1-yl)prop-2-en-1-one acetate]
21 | – | – | – | < 200 | 1500 to 5000 | 1500 to 5000 | Cc1cc(Nc2ncnn3ccc(C4=CCN(C(=O)/C=C/CN(C)C)C4)c23)ccc1Oc1ccn2ncnc2c1 [Example 29, (E)-1-(3-(4-((4-([1,2,4]triazolo[1,5-a]pyridin-7-yloxy)-3-methylphenyl)amino)pyrrolo[2,1-f][1,2,4]triazin-5-yl)-2,5-dihydro-1H-pyrrol-1-yl)-4-(dimethylamino)but-2-en-1-one acetate]
22 | – | – | – | < 200 | < 200 | 1500 to 5000 | Cc1cc(Nc2ncnn3ccc(C4CN(C(=O)/C=C/CN5CCOCC5)C4)c23)ccc1Oc1ccn2ncnc2c1 [Example 37, (E)-1-(3-(4-((4-([1,2,4]triazolo[1,5-a]pyridin-7-yloxy)-3-methylphenyl)amino)pyrrolo[2,1-f][1,2,4]triazin-5-yl)azetidin-1-yl)-4-morpholinobut-2-en-1-one]
